# Measurements published in article PMC6014988, “Precision therapeutic targeting of human cancer cell motility” (Nature Communications, 2018).
# Read-outs that look alike come from different tables or passages of the source.
# Assays:
# [1] = tested on: human prostate, breast, colon, and lung cancer cells; assay: Single-cell migration assay; assay type: cell-based; conditions: 10 µM, 3 days
# Procedure: Human prostate metastatic cells (PC3, PC3-M), and HPV-transformed normal (1532NPTX, 1542NPTX) and primary cancer (1532CPTX, 1542CPTX) cells, were treated with 10 µM genistein (G), KBU2046 (46), or vehicle (CO), and after 3 days, cell invasion was measured. Values are mean ± SEM of a single experiment in replicates of N = 4, with similar findings in multiple separate experiments (also N = 4). c Single-cell migration. Cell migration was measured after treatment for 3 days with 10 µM KBU2046 or vehicle (control). Values are mean ± SEM of a single experiment in replicates of N = 24, with similar findings in a separate experiment (also N = 24). *Denotes Student’s t-test P value <0.05, compared to controls. d Human cord blood hematopoietic stem cell colony formation assay. Values are the mean ± SD number of total, CFU-GM, CFU-GEMM, or BFU-E colonies at 14 days after treatment with KBU2046, from a single experiment in replicates of N = 2. e Induction of estrogen-responsive genes. Values are the mean ± SD of a single experiment, with similar results seen in a separate experiment, both in replicates of N = 2 […]
# [2] = Pharmacokinetics in CD1 mice, oral gavage and iv; assay type: in vivo, mouse
# Procedure: For determination of pharmacokinetic (PK) parameters, KBU2046 was administered by either intravenous injection or oral gavage to groups of N = 3 CD1(ICR) mice at 0 (i.e., vehicle only), 25, or 100 mg/kg. Blood was collected into EDTA by terminal cardiac puncture before drug administration (i.e., baseline) and at 5, 10, 15, 30, 45, 60, 90, 120, 180, 240, 360, 480, 960, 1440 min after administration. In separate experiments, as described above, Balb/c athymic mice were dosed with KBU2046 incorporated into chow for 35 days, after which blood was collected by terminal cardiac puncture. Resultant plasma (~250 μl/mouse) was stored at −80 °C.
# Plasma KBU2046 concentrations were measured in duplicate by liquid chromatography-tandem mass spectrometry after sample preparation by solid-phase extraction. Specifically, 0.1 mL of a sample, 10 μL of 0.1 μg/mL internal standard solution (3-(2-chlorophenyl)-(4H-1-benzopyran-4-one, a chloride analog of KBU2046), 3800 μL of water, and 10 μl of 85% phosphoric acid were added, vortexed, and stored at 4 °C for 2 h. After washing a 96-well Strata-X 33 µm polymeric reversed phase 30 mg/well solid-phase extraction plate (Phenomenex) with methanol and water, sample was applied, washed with 20% methanol in water, eluted with 70% acetonitrile/30% methanol, dried at 50 °C under N2, reconstituted with 100 μL of mobile phase, and 20 µL was analyzed on an API 3000 liquid chromatography-tandem mass spectrometry system (Applied Biosystems) with an Agilent 1100 series HPLC system (Agilent Technologies). Samples were eluted isocratically from a Synergi 4-μm MAX-RP 100 Å column (2.0 × 50 mm; Phenomenex) by a mobile phase consisting of 10 mM ammonium formate in water and methanol (30:70 [vol/vol]) at a flow rate of 0.20 mL/min. The tandem mass spectrometer was operated with its electrospray source in the positive ionization mode. The mass-to-charge ratios of the precursor-to-product ion reactions monitored were 243.5 → 125.1 for KBU2046 and 257.0 → 165.0 for the internal standard. The retention time of KBU2046 was ~2.7 min while that of the internal standard was ~2.3 min. The linear range for plasma KBU2046 standard curves was 0.1–25.0 ng/mL, with coefficients of variation of 10% or less throughout the entire concentration range. Fresh plasma standard curves were prepared in blank plasma and run on the day of analysis of plasma samples.
# Plasma KBU2046 concentration vs. time relationships after both intravenous and oral drug administration were modeled simultaneously using the SAAM II software system (SAAM Institute), implemented on a WindowsTM-based PC (see PK modeling schema). Plasma concentrations were modeled with a three-compartment PK model using a naive pooled data approach. Oral drug absorption was characterized by a tanks-in-series delay element, to account for the non-instantaneous appearance of drug in the body. Simultaneous estimation of PK model parameters for both routes of administration permitted estimation of the bioavailability of the orally administered drug (F)[41]. The SAAM II objective function used was the extended least-squares maximum likelihood function using data weighted with the inverse of the model-based variance of the data at the observation times. Model misspecification was sought by visual inspection of the measured and predicted marker concentrations vs. time relationships (Fig. 7)[42].
# [3] = tested on: protein phosphorylation in PC3-M and PC3 cells; assay: KinomeView phospho-motif antibody screen; assay type: cell-based, human; conditions: 10 µM, 3 days, ± TGFβ
# Procedure: The Kinoview™ and PhosphoScan™ assays were performed by Cell Signaling Technology Inc.
# Supplementary Figure 10. Proteomic analysis of the effects of KBU2046 on the kinome. (a-c) Screening for effects on the kinome. PC3-M cells were pre-treated with 10 µM KBU2046, genistein or vehicle control for 3 days, then with ± TGFβ, as indicated. Resultant cell lysate, as well as lysate from tumors from mice treated with 150 mg/kg KBU2046 or control mice (from manuscript Figure 2a), were then probed with the KinomeView® panel of antibodies by Western blot. In instances where KBU2046 was inhibiting protein phosphorylation in cells and in tumors, a repeat experiment of PC3-M cells was conducted (Experiment #2). In addition to including PC3-M cells, as in Experiment #1, Experiment #2 expanded to examine effects on PC3 cells. (a) The identification of an 83 kDa band of interest (red arrows). This constitutes the only change […]
# as in tumor tissue. […] (c) All […]
# other Western blots of phospho-motif antibodies that were evaluated on initial screen. NI = tumor not informative; this denotes a tumor sample that yielded an abnormal coomassie blue staining pattern. Data from this sample was therefore not considered further.
# (also on this page, place not known: cat #C32G12; tPE cat #2981; sRXY, FXs NI NI cat #2351; tXR cat #23C8D12; RXRXX(s/t) NI NI)
# (1 picture or pasted object on this page, not shown here)
# [4] = combined fit of both doses by both routes
structure (smiles),measurement,setting,value
"O=C1c2ccccc2OCC1c1ccc(F)cc1 (racemic) [KBU2046, (±)-3(4-fluorophenyl)chroman-4-one]",cell migration,[1],inhibited the migration
same,clearance,"[2]; CD1(ICR), mouse, plasma, combined fit of both doses by both routes, read-out: Clearance, Elimination CLE",1.53 mL/min
same,clearance,"[2]; CD1(ICR), mouse, plasma, combined fit of both doses by both routes, read-out: Clearance, Fast CLF",0.61 mL/min
same,clearance,"[2]; CD1(ICR), mouse, plasma, combined fit of both doses by both routes, read-out: Clearance, Slow CLS",0.11 mL/min
same,Vd,"[2]; CD1(ICR), mouse, plasma, combined fit of both doses by both routes, read-out: Distribution volume, Total VSS",0.0636 L
same,half-life,"[2]; CD1(ICR), mouse, plasma, combined fit of both doses by both routes, read-out: Elim Half-life (converted)",2.27 h
same,bioavailability,"[2]; CD1(ICR), mouse, plasma, 25 mg/kg by oral gavage",4.6%
same,bioavailability,"[2]; CD1(ICR), mouse, plasma, 100 mg/kg by oral gavage",10.1%
same,Absorption delay,[2]; [4],32.3 min
same,"Distribution volume, Central VC",[2]; [4],19.3 mL
same,"Distribution volume, Fast VF",[2]; [4],20.4 mL
same,"Distribution volume, Slow VS",[2]; [4],23.9 mL
same,time plasma concentrations maintained >24 nM,[2]; single oral dose,9.3 h
same,changes in protein phosphorylation,[3],only a single change
